{"source": "ChEMBL document CHEMBL4507326", "about": "“Data for DCP probe TP-030-2” (2021)", "key": {"[1]": {"target": "Casein kinase I isoform alpha-like (Homo sapiens, UniProt Q8N752)", "test": "CK1alpha2(C1ALLGI5) Takeda global kinase panel"}, "Aurora kinase B": {"target": "Aurora kinase B (Homo sapiens, UniProt Q96GD4)", "sequence (Q96GD4 whole entry)": "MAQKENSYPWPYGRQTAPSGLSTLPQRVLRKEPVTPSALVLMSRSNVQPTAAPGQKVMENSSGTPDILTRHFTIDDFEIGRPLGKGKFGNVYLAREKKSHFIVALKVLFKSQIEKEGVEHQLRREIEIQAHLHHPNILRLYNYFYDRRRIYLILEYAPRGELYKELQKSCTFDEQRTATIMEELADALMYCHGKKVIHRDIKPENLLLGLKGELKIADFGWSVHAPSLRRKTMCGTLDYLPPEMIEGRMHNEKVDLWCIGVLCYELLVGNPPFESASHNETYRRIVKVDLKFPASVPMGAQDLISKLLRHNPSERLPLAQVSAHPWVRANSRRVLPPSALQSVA", "test": "AurB [Aur1(AURBPGE1)] Takeda global kinase panel"}, "[2]": {"target": "Mitogen-activated protein kinase kinase kinase 20 (Homo sapiens, UniProt Q9NYL2)", "test": "ZAK(ZAK1LGY1) Takeda global kinase panel"}, "[3]": {"target": "Interleukin-1 receptor-associated kinase 3 (Homo sapiens, UniProt Q9Y616)", "test": "IRAK3(IRK3PFE1) Takeda global kinase panel"}, "[4]": {"target": "5-hydroxytryptamine receptor 2B (Homo sapiens) (UniProt P41595)", "details": "Compound concentration 10.0 uM; call rule not given here"}, "[5]": {"target": "Phosphatidylinositol 4,5-bisphosphate 3-kinase catalytic subunit delta isoform (Homo sapiens, UniProt O00329)", "sequence (O00329 whole entry, canonical isoform)": "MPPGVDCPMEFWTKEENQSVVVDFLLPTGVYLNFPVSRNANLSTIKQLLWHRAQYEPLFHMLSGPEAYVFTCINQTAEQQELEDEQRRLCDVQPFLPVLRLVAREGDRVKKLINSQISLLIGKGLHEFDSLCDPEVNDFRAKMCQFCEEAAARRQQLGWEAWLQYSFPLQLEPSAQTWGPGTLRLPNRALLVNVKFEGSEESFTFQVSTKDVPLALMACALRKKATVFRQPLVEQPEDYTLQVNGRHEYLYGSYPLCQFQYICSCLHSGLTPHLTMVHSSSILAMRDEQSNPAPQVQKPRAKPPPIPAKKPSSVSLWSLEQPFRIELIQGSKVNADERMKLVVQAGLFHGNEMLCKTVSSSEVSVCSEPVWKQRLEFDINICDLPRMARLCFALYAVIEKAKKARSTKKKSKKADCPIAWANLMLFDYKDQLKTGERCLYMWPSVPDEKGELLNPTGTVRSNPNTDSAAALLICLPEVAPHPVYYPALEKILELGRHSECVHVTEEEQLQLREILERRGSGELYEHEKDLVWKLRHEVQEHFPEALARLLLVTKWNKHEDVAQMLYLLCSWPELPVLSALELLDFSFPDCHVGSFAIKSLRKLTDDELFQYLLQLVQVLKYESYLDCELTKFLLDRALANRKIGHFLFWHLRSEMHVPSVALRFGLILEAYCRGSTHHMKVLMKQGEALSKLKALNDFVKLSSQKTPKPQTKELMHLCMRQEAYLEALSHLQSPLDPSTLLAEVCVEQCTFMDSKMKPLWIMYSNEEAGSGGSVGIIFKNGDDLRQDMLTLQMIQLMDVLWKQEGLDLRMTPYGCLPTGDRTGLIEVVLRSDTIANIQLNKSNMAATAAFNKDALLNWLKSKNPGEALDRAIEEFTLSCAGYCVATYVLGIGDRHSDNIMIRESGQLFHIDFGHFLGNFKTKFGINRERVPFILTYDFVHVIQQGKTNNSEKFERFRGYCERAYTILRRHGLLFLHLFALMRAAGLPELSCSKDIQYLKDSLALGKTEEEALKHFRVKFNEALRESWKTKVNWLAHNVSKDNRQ", "test": "PI3KCD(PI3DCGRK) Takeda global kinase panel"}, "[6]": {"target": "L-type calcium channel, benzothiazepine site (Cav1.2 alpha-1C) (Homo sapiens, UniProt Q13936)", "test": "Inhibition of Calcium Channel L-Type, Benzothiazepine at 10 µM in the Eurofins-Panlabs radioligand binding assay (Eurofins_assay_214510)", "parameters": "ligand concentration 2 nM, non-specific ligand with concentration 10 µM Diltiazem, incubation time 3h, incubation temperature 4 °C", "details": "male, Wistar, rat, rat whole brain preparation, probe [3H] Diltiazem; compound concentration 10 uM; target entry is the homologue from another species"}, "[7]": {"target": "RAC-beta serine/threonine-protein kinase (Homo sapiens, UniProt P31751)", "test": "Akt2 [PKBbeta(AKT2CGY1)] Takeda global kinase panel"}, "[8]": {"target": "5-hydroxytryptamine receptor 1D (Homo sapiens) (UniProt P28221)", "details": "Compound concentration 10.0 uM"}, "[9]": {"target": "Cyclin-dependent kinase 12 (Homo sapiens, UniProt Q9NYV4)", "test": "CRK7(CD12PHS1) Takeda global kinase panel"}, "[10]": {"target": "Adenosine receptor A3 (Homo sapiens) (UniProt P0DMS8)", "details": "Compound concentration 10.0 uM"}, "[11]": {"target": "Mitogen-activated protein kinase 9 (Homo sapiens, UniProt P45984)", "test": "JNK2(MAP9LGF1) Takeda global kinase panel"}, "[12]": {"target": "Mitogen-activated protein kinase 14 (Homo sapiens, UniProt Q16539)", "test": "p38alpha(MP14LGI1) Takeda global kinase panel"}, "[13]": {"target": "5-hydroxytryptamine receptor 5A (Homo sapiens) (UniProt P47898)", "details": "Compound concentration 10.0 uM"}, "[14]": {"target": "Alpha-2C adrenergic receptor (Homo sapiens, UniProt P18825)", "sequence (P18825 whole entry)": "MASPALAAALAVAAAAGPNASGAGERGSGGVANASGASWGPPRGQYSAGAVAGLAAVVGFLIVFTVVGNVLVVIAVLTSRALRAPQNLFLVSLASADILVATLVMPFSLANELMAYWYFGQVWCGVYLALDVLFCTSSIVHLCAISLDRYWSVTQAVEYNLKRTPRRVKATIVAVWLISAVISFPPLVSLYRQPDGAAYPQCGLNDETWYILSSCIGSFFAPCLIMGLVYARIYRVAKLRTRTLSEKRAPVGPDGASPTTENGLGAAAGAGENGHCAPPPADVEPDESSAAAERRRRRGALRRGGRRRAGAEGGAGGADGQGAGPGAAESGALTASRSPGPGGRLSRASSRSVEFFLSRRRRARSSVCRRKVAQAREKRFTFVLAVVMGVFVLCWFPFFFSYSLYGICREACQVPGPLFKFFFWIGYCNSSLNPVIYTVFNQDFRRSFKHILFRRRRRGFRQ", "test": "GPCRScan assay: inhibition of Alpha2C", "parameters": "radioligand conc. used [nm] 0.5 – 1.0, parental cells stable MDCK"}, "[15]": {"target": "cAMP-dependent protein kinase catalytic subunit gamma (Homo sapiens, UniProt P22612)", "test": "PKAgamma(PRCGLGY1) Takeda global kinase panel"}, "[16]": {"target": "Uncharacterized serine/threonine-protein kinase SBK3 (Homo sapiens, UniProt P0C264)", "sequence (P0C264 whole entry)": "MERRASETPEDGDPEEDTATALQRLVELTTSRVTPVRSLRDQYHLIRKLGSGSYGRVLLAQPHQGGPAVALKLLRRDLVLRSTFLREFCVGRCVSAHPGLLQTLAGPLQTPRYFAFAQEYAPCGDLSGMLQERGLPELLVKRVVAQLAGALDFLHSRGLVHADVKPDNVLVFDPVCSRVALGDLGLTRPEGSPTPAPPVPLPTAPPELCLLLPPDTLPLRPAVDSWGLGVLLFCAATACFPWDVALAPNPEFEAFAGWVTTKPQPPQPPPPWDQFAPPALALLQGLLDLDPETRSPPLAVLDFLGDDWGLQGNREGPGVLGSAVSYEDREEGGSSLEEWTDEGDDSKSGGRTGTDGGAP", "test": "SgK110(SG10LGF1) Takeda global kinase panel"}, "[17]": {"target": "Mitogen-activated protein kinase kinase kinase 12 (Homo sapiens, UniProt Q12852)", "sequence (Q12852 whole entry)": "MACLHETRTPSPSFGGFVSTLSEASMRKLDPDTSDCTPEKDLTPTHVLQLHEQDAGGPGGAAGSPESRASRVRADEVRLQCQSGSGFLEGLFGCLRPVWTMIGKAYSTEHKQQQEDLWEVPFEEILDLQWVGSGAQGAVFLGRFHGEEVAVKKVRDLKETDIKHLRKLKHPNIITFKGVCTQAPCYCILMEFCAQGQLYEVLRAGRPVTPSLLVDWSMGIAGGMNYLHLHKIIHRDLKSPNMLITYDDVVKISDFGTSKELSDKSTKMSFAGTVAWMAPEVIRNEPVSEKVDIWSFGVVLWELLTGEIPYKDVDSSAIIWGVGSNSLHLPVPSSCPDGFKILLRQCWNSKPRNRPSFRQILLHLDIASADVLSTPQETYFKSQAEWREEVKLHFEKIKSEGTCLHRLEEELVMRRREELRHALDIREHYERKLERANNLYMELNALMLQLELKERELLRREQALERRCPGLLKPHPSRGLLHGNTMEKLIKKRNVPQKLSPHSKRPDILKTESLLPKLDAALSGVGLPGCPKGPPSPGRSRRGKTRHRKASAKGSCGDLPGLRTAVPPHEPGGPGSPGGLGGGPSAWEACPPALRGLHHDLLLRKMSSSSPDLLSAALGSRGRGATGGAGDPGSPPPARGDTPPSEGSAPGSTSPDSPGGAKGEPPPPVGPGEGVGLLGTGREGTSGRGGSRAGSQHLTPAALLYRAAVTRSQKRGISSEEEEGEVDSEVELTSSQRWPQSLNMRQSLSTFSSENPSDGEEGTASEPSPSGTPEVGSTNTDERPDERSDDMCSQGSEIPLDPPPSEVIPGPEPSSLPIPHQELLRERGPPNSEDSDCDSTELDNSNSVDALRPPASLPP", "test": "DLK(M312CGY1) Takeda global kinase panel"}, "[18]": {"target": "Glucocorticoid receptor (Homo sapiens) (UniProt P04150)", "details": "Compound concentration 10.0 uM"}, "[19]": {"target": "Serine/threonine-protein kinase Nek11 (Homo sapiens, UniProt Q8NG66)", "test": "Nek11(NE11LGRI) Takeda global kinase panel"}, "[20]": {"target": "Mitogen-activated protein kinase 8 (Homo sapiens, UniProt P45983)", "test": "JNK1(MAP8LGF1) Takeda global kinase panel"}, "Rattus norvegicus": {"organism": "Rattus norvegicus", "test": "Inhibition of Rolipram at 10 µM in the Eurofins-Panlabs radioligand binding assay (Eurofins_assay_268811)", "type": "protein assay", "parameters": "ligand concentration 1.8 nM", "details": "Compound concentration 10.0 uM"}, "[21]": {"target": "Fibroblast growth factor receptor 3 (Homo sapiens, UniProt P22607)", "test": "FGFR3(FGF3LGF1) Takeda global kinase panel"}, "SRSF protein kinase 2": {"target": "SRSF protein kinase 2 (Homo sapiens, UniProt P78362)", "test": "SRPK2(SRP2IGRL) Takeda global kinase panel"}, "[22]": {"target": "Serine/threonine-protein kinase/endoribonuclease IRE1 (Homo sapiens, UniProt O75460)", "sequence (O75460 whole entry)": "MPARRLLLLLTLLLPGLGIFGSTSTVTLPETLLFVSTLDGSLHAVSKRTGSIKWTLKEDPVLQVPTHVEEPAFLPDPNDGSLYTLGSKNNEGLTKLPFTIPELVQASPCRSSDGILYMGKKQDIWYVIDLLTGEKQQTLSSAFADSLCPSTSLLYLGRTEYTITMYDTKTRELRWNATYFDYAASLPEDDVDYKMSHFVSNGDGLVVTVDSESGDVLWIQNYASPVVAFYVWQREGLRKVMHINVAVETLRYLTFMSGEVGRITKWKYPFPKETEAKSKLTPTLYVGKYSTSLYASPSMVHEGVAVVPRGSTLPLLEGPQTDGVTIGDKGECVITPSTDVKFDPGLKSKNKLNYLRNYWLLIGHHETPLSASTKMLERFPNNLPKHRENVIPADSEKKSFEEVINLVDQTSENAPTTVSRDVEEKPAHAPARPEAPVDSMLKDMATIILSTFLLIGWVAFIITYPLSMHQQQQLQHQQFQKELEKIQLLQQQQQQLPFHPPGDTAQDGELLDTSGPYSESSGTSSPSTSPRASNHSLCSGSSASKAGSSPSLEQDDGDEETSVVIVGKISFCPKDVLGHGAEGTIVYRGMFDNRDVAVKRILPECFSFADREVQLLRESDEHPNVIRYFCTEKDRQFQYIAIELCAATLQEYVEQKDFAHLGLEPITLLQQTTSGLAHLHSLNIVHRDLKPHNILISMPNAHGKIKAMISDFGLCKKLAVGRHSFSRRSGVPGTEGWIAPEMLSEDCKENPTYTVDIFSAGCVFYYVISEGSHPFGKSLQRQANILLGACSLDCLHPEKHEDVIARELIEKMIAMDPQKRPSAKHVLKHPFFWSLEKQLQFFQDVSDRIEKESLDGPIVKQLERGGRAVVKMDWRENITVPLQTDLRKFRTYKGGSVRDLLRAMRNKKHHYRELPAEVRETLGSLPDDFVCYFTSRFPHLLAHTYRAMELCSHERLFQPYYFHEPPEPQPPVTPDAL", "test": "IRE1(ERN1PHY1) Takeda global kinase panel"}, "[23]": {"target": "Serine/threonine-protein kinase SIK1 (Homo sapiens, UniProt P57059)", "test": "SIK(SIK1LHY1) Takeda global kinase panel"}, "Oryctolagus cuniculus": {"organism": "Oryctolagus cuniculus", "details": "Compound concentration 10.0 uM"}, "[24]": {"target": "5-hydroxytryptamine receptor 7 (Homo sapiens) (UniProt P34969)", "details": "Compound concentration 10.0 uM"}, "[25]": {"target": "D(2) dopamine receptor (Homo sapiens) (UniProt P14416)", "details": "Compound concentration 10.0 uM"}, "[26]": {"target": "D(3) dopamine receptor (Homo sapiens) (UniProt P35462)", "details": "Compound concentration 10.0 uM"}, "[27]": {"target": "Serine/threonine-protein kinase LATS2 (Homo sapiens, UniProt Q9NRM7)", "test": "LATS2(LAT2LGY1) Takeda global kinase panel"}, "[28]": {"target": "Serine/threonine-protein kinase ICK (Homo sapiens, UniProt Q9UPZ9)", "test": "ICK(ICK1LGP1) Takeda global kinase panel"}, "Aurora kinase A": {"target": "Aurora kinase A (Homo sapiens, UniProt O14965)", "test": "AurA [Aur2(AURALGF1)] Takeda global kinase panel"}, "[29]": {"target": "Non-receptor tyrosine-protein kinase TNK1 (Homo sapiens, UniProt Q13470)", "test": "Tnk1(TNK1LGY1) Takeda global kinase panel"}, "[30]": {"target": "ATP-sensitive inward rectifier potassium channel 11 (Cricetulus griseus) (UniProt A0A3L7HHE1)", "test": "Inhibition of Potassium Channel [KATP] at 10 µM in the Eurofins-Panlabs radioligand binding assay (Eurofins_assay_265600)", "details": "Cricetinae; Compound concentration 10.0 uM"}, "[31]": {"target": "Serine/threonine-protein kinase TNNI3K (Homo sapiens, UniProt Q59H18)", "sequence (Q59H18 whole entry)": "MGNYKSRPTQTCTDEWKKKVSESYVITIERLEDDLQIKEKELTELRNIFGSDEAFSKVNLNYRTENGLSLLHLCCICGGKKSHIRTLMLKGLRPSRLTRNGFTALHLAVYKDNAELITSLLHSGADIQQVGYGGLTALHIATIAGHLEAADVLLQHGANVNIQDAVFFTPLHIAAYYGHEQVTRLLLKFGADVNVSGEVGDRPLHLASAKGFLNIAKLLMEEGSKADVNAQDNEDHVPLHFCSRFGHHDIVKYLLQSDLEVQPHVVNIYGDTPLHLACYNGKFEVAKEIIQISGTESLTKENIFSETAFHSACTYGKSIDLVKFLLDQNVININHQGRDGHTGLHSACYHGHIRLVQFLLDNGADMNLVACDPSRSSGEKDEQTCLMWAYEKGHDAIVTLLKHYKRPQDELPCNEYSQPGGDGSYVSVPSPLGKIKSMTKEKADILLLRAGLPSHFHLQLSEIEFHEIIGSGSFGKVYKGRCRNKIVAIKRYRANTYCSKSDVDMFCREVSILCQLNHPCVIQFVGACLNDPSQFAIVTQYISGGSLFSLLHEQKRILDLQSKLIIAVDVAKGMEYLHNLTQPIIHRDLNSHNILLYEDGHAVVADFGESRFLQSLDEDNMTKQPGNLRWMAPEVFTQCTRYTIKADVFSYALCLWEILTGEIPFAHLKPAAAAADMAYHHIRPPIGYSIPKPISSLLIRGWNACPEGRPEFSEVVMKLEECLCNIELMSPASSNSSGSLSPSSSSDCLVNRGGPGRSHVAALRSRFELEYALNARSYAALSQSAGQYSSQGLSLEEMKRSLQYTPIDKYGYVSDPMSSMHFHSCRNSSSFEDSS", "test": "HH498(TNNILGY1) Takeda global kinase panel"}, "[32]": {"target": "G protein-coupled receptor kinase 3 (Homo sapiens, UniProt P35626)", "test": "BARK2 [GRK3(ADR2LGG5)] Takeda global kinase panel"}, "[33]": {"target": "High affinity nerve growth factor receptor (Homo sapiens, UniProt P04629)", "test": "TRKA(NTR1LGN1) Takeda global kinase panel"}, "[34]": {"target": "Citron Rho-interacting kinase (Homo sapiens, UniProt O14578)", "test": "CRIK(CIT1LGY1) Takeda global kinase panel"}, "[35]": {"target": "Serine/threonine-protein kinase pim-2 (Homo sapiens, UniProt Q9P1W9)", "test": "Pim2(PIM2LHY1) Takeda global kinase panel"}, "Ephrin type-B receptor 2": {"target": "Ephrin type-B receptor 2 (Homo sapiens, UniProt P29323)", "test": "EphB2(EPB2LGY1) Takeda global kinase panel"}, "[36]": {"target": "Mitogen-activated protein kinase kinase kinase 5 (Homo sapiens, UniProt Q99683)", "test": "ASK [MAP3K5(M3K5LGA1)] Takeda global kinase panel"}, "[37]": {"target": "Ribosomal protein S6 kinase alpha-1 (Homo sapiens, UniProt Q15418)", "test": "RSK1 [p90RSK(R6A2CGE1)] Takeda global kinase panel"}, "[38]": {"target": "Dual specificity tyrosine-phosphorylation-regulated kinase 2 (Homo sapiens, UniProt Q92630)", "test": "DYRK2(DYR2LGY1) Takeda global kinase panel"}}}
{"smiles": "CN1C(=O)[C@@H](N2CCc3c(nn(Cc4ccccc4)c3Br)C2=O)COc2ccccc21", "note": "[TP-030-2]", "values": [{"measurement": "IC50", "setting": "[1]", "value": 1, "unit": "µM"}, {"measurement": "IC50", "setting": "Aurora kinase B", "value": 1, "unit": "µM"}, {"measurement": "IC50", "setting": "[2]", "value": 1, "unit": "µM"}, {"measurement": "IC50", "setting": "[3]", "value": 1, "unit": "µM"}, {"measurement": "inhibition", "setting": "[4]", "value": 63, "unit": "%"}, {"measurement": "IC50", "setting": "[5]", "value": 1, "unit": "µM"}, {"measurement": "inhibition at 3 h, 10 µM", "setting": "[6]", "value": "16% (not active)"}, {"measurement": "IC50", "setting": "[7]", "value": 1, "unit": "µM"}, {"measurement": "inhibition", "setting": "[8]", "value": -5.06, "unit": "%"}, {"measurement": "IC50", "setting": "[9]", "value": 1, "unit": "µM"}, {"measurement": "inhibition", "setting": "[10]", "value": 33, "unit": "%"}, {"measurement": "IC50", "setting": "[11]", "value": 1, "unit": "µM"}, {"measurement": "IC50", "setting": "[12]", "value": 1, "unit": "µM"}, {"measurement": "inhibition", "setting": "[13]", "value": 38.2, "unit": "%"}, {"measurement": "Ki", "setting": "[14]; read-out: Ki", "value": 2.95, "unit": "µM"}, {"measurement": "Ki", "setting": "[14]; read-out: pKi (converted)", "value": 2.82, "unit": "µM"}, {"measurement": "IC50", "setting": "[15]", "value": 1, "unit": "µM"}, {"measurement": "IC50", "setting": "[16]", "value": 1, "unit": "µM"}, {"measurement": "IC50", "setting": "[17]", "value": 1, "unit": "µM"}, {"measurement": "inhibition", "setting": "[18]", "value": 10, "unit": "%"}, {"measurement": "IC50", "setting": "[19]", "value": 1, "unit": "µM"}, {"measurement": "IC50", "setting": "[20]", "value": 1, "unit": "µM"}, {"measurement": "inhibition", "setting": "Rattus norvegicus", "value": 0, "unit": "%"}, {"measurement": "IC50", "setting": "[21]", "value": 1, "unit": "µM"}, {"measurement": "IC50", "setting": "SRSF protein kinase 2", "value": 1, "unit": "µM"}, {"measurement": "IC50", "setting": "[22]", "value": 1, "unit": "µM"}, {"measurement": "IC50", "setting": "[23]", "value": 1, "unit": "µM"}, {"measurement": "inhibition", "setting": "Oryctolagus cuniculus", "value": -4, "unit": "%"}, {"measurement": "inhibition", "setting": "[24]", "value": 5.69, "unit": "%"}, {"measurement": "inhibition", "setting": "[25]", "value": -5.95, "unit": "%"}, {"measurement": "inhibition", "setting": "[26]", "value": 14, "unit": "%"}, {"measurement": "IC50", "setting": "[27]", "value": 1, "unit": "µM"}, {"measurement": "IC50", "setting": "[28]", "value": 1, "unit": "µM"}, {"measurement": "IC50", "setting": "Aurora kinase A", "value": 1, "unit": "µM"}, {"measurement": "IC50", "setting": "[29]", "value": 1, "unit": "µM"}, {"measurement": "inhibition", "setting": "[30]", "value": 14, "unit": "%"}, {"measurement": "IC50", "setting": "[31]", "value": 1, "unit": "µM"}, {"measurement": "IC50", "setting": "[32]", "value": 1, "unit": "µM"}, {"measurement": "IC50", "setting": "[33]", "value": 1, "unit": "µM"}, {"measurement": "IC50", "setting": "[34]", "value": 1, "unit": "µM"}, {"measurement": "IC50", "setting": "[35]", "value": 1, "unit": "µM"}, {"measurement": "IC50", "setting": "Ephrin type-B receptor 2", "value": 1, "unit": "µM"}, {"measurement": "IC50", "setting": "[36]", "value": 1, "unit": "µM"}, {"measurement": "IC50", "setting": "[37]", "value": 1, "unit": "µM"}, {"measurement": "IC50", "setting": "[38]", "value": 1, "unit": "µM"}]}
